# Measured values: US20240342167A1, “INHIBITORS OF PORCINE REPRODUCTIVE AND RESPIRATORY SYNDROME VIRUS” (University of Connecticut, priority 2023, published 2024)
# Entries after “also recorded” stand apart in the source; their conditions may differ.
# What was measured:
# [1] = biological target: T1, PPI between PRRSV GP4 and CD163-SRCR5 domain (Sus scrofa, UniProt Q2VL90); assay: BiFC assay GP4/SRCR5; format: cell-based, porcine CD163; PRRSV VR2332; details: for Average GP4 (relative fluorescence intensity, SRCR5/GP4 BiFC): 5 μM, HEK293T, 24 h after transfection, relative to NC (DMSO), n=3
# T1 construct: SRCR5 domain of porcine CD163 receptor was amplified from cDNA of pig cells; expressed in transfected cells; host or cells: HEK293T
# T1 sequence (Q2VL90 477-577): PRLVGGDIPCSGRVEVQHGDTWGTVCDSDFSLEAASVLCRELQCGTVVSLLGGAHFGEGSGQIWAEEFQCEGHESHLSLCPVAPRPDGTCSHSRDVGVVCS
# Experimental: (§1) HEK293T cells were cultivated in 6-well plates in FP medium and transfected with 1 μg XpBiFC-VN155 (I152L)-SRCR5 and 1 μg pBiFC-VC155-GP2/GP4 using Fugene6. After 4 h, cells were digested with 0.05% Typsin-EDTA (ThermoFisher Scientific, MA, USA)) and passaged to 48-well plates which were coated with EmbryoMax 0.1% Gelatin Solution (Sigma-Aldrich, MO, USA) and preloaded with 5 μM B7 analogues. Fluorescence images were taken at 24 h after transfection and fluorescence intensity was measured by image J.
# [2] = biological target: T2, PPI between PRRSV glycoprotein GP2a and CD163-SRCR5 (Sus scrofa, UniProt Q2VL90); assay: BiFC assay GP2a/SRCR5; format: cell-based, porcine CD163; PRRSV VR2332; details: 5 μM; for Average GP2a (relative fluorescence intensity, SRCR5/GP2a BiFC): HEK293T, 24 h after transfection, relative to NC (DMSO) = 1.00, n=3
# T2 construct: SRCR5 domain of porcine CD163 receptor was amplified from cDNA of pig cells; expressed in transfected cells; host or cells: HEK293T
# T2 sequence (Q2VL90 477-577): as above
# Experimental: as §1
# [3] = test system: PRRSV strains NADC30, VR-2332 and Lelystad; assay: PRRSV infection assay in PAMs, qRT-PCR for PRRSV; format: cell-based; details: for inhibitory effect against PRRSV infection (in words): 15 μM, PAMs, qRT-PCR; for antiviral potency, SAR comparison (in words): qRT-PCR and titration in infected PAMs, compared with B7, B7-A4 or G7
# Experimental: PAMs were cultivated in 12-well plates and infected with PRRSV NADC30 strain or Lelystad strain at MOI=0.05 for 1 h. Cells were then incubated with 15 μM B7 analogues for 24 h at 37° C. RNAs were extracted from the PAMs for quantitative reverse transcription-PCR (qRT-PCR) using RNeasy Mini Kits (Qiagen, MD, USA) and supernatants of cells were collected PRRSV titration assay.
# RNAs isolated from infected PAMs were reversely transcribed to cDNA using iScript™ cDNA Synthesis Kit (Bio-Rad Laboratories, CA, USA). Specific qRT-PCR primers for ORF7 gene of PRRSV NADC30 and Lelystad strains, and for porcine GAPDH are shown in the Table S2 qRT-PCR reaction was conducted with SYBR Green Supermix (Bimake, TX, USA) using the ABI 7500 Fast Platform (Thermo Fisher Scientific, MA, USA). GAPDH served as the house keeping gene for normalization.
# [4] = biological target: T3, GFP-fusion CD163-SRCR5 (GFP-fused SRCR5 domain of porcine CD163, recombinant, expressed in E. coli BL21 (DE3)) (Sus scrofa, UniProt Q2VL90); assay: Microscale thermophoresis (MST) assay: direct association of compounds with purified GFP-fused CD163-SRCR5; format: binding; details: Monolith NT.115, blue channel, values represent Mean, N=3
# T3 construct: GFP and GFP-SRCR2 as controls
# T3 sequence (Q2VL90 477-577 limits assumed): as the sequence (Q2VL90 477-577) above
# Experimental: The amino acids within the LBP and loop 5-6 regions are underlined. […] B7 was placed in position 1 (Boxes) to show the potential disturbing of both conformations. […] B7 was placed in position 2 (Box) to show the potential disturbing of this conformation. […] Values represent Mean, N=3. […] Values represent Mean, N=3. […] Values represent Mean, N=3.
# All chemicals (dissolved in 10 mM in DMSO) were designed and provided by Atomwise, Inc. (CA, USA). Compounds were further diluted in PBS (137 mM NaCl, 2.7 mM KCl, 8 mM Na2HPO4, and 2 mM KH2PO4, pH 7.4, Gibco, MA, USA) to 200 μM as the working solution. Pulmonary alveolar macrophages (PAMs) were harvested from healthy 4-6-month Landrace/Yorkshire pigs. Briefly, pig lungs were removed from euthanized pigs during necropsy and transferred on ice to the lab. 200 mL warm PBS with 200 U/mL penicillin and 200 μg/mL streptomycin was injected into trachea and reached major bronchi of both sides of the lungs. Lungs were then massaged and bronchoalveolar lavage fluid (BALF) was collected. PAMs were harvested from the BALF by centrifugation at 400×g for 15 min and washed in PBS twice. Fresh PAMs were counted and frozen in 90% FBS and 10% DMSO (Sigma-Aldrich, MO) in liquid nitrogen. PAMs were cultivated in RPMI-1640 (Gibco, MA) supplemented with 10% FBS, 2 mM Glutamax, 0.1 mM MEM Non-Essential Amino Acids, 1 mM sodium pyruvate, 100 U/mL penicillin and 100 μg/mL streptomycin, and 0.5 μg/mL Amphotericin B. SRCR5 domain of porcine CD163 receptor was amplified from cDNA of pig cells and inserted into pBiFC-VN155 (I152L). PRRSV GP2a and GP4 were amplified from reverse-transcribed genome of PRRSV VR2332 strain and cloned into pBiFC-VC155 vector as previously described (Huang et al., Virol J 17, 116, 2020). Porcine CD163 was cloned into pMXs vector (Cell Biolabs, CA, USA). For protein purification, […] were cloned into pET28b-GFP (Addgene, MA, USA).
# The recombinant pET28b-GFP-SRCR2/SRCR5 constructs were transformed into Escherichia coli strain BL21 (DE3) (New England Biolabs, MA, USA). The transformed clones were cultured at 37° C. in LB broth with […] kanamycin, induced by adding 1 mM isopropyl β-D-1-thiogalactopyranoside at optical density of 0.6-0.8, and then incubated at 37° C. for 3 h. For protein purification, cells were pelleted and resuspended in xTractor Buffer containing DNAse I, lysozyme solution, and Protease Inhibitor Cocktail (Takara Bio USA, Inc., CA). The suspension was sonicated and centrifuged. […]
# The purified GFP, GFP-fused SRCR2 or SRCR5 proteins were mixed with serially diluted compounds. The mixtures were loaded to capillaries and the affinity was measured by Monolith NT.115 (NanoTemper Technologies, Inc., CA, USA) at corresponding MST power with the blue channel. […]
Structure (SMILES),"Average GP4 (relative fluorescence intensity, SRCR5/GP4 BiFC) [1]","Average GP2a (relative fluorescence intensity, SRCR5/GP2a BiFC) [2]",inhibitory effect against PRRSV infection (in words) [3],"antiviral potency, SAR comparison (in words) [3]",Kd [4],interference with the PPI between GP4/SRCR5 (in words) [1],inhibition of the PPI between SRCR5-VN and GP2a-VC at pH 6.0 (in words) ([2]; pH 6.0)
COc1ccc(Nc2nc3ccccc3nc2NS(=O)(=O)c2ccc(F)cc2C)cc1 [A1],0.89,0.63,,,,,
COc1ccc(Nc2nc3ccccc3nc2NS(=O)(=O)c2ccc(F)cc2C)cc1Cl [A3],0.43,0.06,mild,significantly increased antiviral effect,,,
Cc1ccc(S(=O)(=O)Nc2nc3ccccc3nc2Nc2cccc(S(=O)(=O)N3CCCC3)c2)cc1 [A7],0.53,0.07,strong,significant drop of its antiviral potency,,,
O=S(=O)(Nc1nc2ccccc2nc1Nc1cccc(S(=O)(=O)N2CCCC2)c1)c1ccccc1 [C6],0.34,0.19,mild,,,,
Cc1cccc(S(=O)(=O)Nc2nc3ccccc3nc2Nc2cccc(F)c2)c1 [C10],0.63,0.33,,,,,
Cc1ccc(S(=O)(=O)Nc2nc3ccccc3nc2Nc2cccc(S(=O)(=O)N3CCCCC3)c2)cc1 [Compound B7-A4],,,,,22.9 µM,,
COc1ccc(NS(=O)(=O)c2cccc(Nc3nc4ccccc4nc3NS(=O)(=O)c3ccc(F)cc3C)c2)cc1 [Compound E3],,,,,330 µM,,
Cc1cccc(S(=O)(=O)Nc2nc3ccccc3nc2Nc2cccc(S(=O)(=O)N3CCCCC3)c2)c1 [Compound E10],,,,,38 µM,,
COc1ccccc1NS(=O)(=O)c1cccc(Nc2nc3ccccc3nc2NS(=O)(=O)c2ccc(F)cc2C)c1 [Compound F9],,,,,24.7 µM,,
Cc1ccccc1S(=O)(=O)Nc1nc2ccccc2nc1Nc1ccc(S(=O)(=O)N2CCOCC2)cc1 [D2],0.23,0.07,,mildly but significantly decreased,,,
COc1ccc(NS(=O)(=O)c2cccc(Nc3nc4ccccc4nc3NS(=O)(=O)c3ccc(F)cc3C)c2)cc1 [E3],0.59,0.10,low activity,near complete loss of antiviral-potency,,,
Cc1cc(F)ccc1S(=O)(=O)Nc1nc2ccccc2nc1Nc1cccc(Cl)c1C [E4],0.74,0.12,,,,,
Cc1cc(F)ccc1S(=O)(=O)Nc1nc2ccccc2nc1Nc1cccc(Cl)c1 [E7],0.69,0.10,,,,,
Cc1cccc(S(=O)(=O)Nc2nc3ccccc3nc2Nc2cccc(S(=O)(=O)N3CCCCC3)c2)c1 [E10],0.06,0.06,,no change in antiviral potency,,,
Cc1ccccc1Nc1nc2ccccc2nc1NS(=O)(=O)c1ccc(F)cc1C [F7],0.96,0.30,,,,,
COc1ccccc1NS(=O)(=O)c1cccc(Nc2nc3ccccc3nc2NS(=O)(=O)c2ccc(F)cc2C)c1 [F9],0.07,0.03,,did not change at all,,,
Cc1cc(F)ccc1S(=O)(=O)Nc1nc2ccccc2nc1Nc1cccc(Cl)c1Cl [F12],0.63,0.31,strong,significantly increased antiviral effect; also recorded: antiviral potency nearly identical to B7,,does not effectively interfere,inhibit the PPI
O=S(=O)(Nc1nc2ccccc2nc1Nc1cccc(S(=O)(=O)N2CCCCC2)c1)c1ccccc1 [G4],0.06,0.04,,significantly decreased its antiviral potency,,,
Cc1cc(F)ccc1S(=O)(=O)Nc1nc2ccccc2nc1Nc1ccccc1 [G7],0.71,0.15,,much lower antiviral effect compared with B7; also recorded: obvious loss of the antiviral activity compared with B7,,,
O=S(=O)(Nc1nc2ccccc2nc1Nc1ccc(Cl)c(S(=O)(=O)N2CCOCC2)c1)c1ccccc1 [G10],0.80,0.13,,mildly but significantly decreased,,,
Cc1ccc(Nc2nc3ccccc3nc2NS(=O)(=O)c2ccc(F)cc2C)cc1 [H1],0.94,0.24,,,,,
